How the values were obtained:
[1] = tested on: complement activation; type: in vivo; conditions: 20 mg E23A intra-peritoneal, male Wistar rats, one hour
[2] = aqueous solubility; qualitative, data not shown

| SMILES | adverse effects / overt toxicity upon necropsy [1] | solubility [2] |
| --- | --- | --- |
| CC[C@H](C)[C@H](NC(=O)[C@H](C)NC(=O)[C@@H]1CCCN1)C(=O)N[C@@H](CS)C(=O)N[C@@H](CCC(N)=O)C(=O)N[C@@H](CCCNC(=N)N)C(=O)N[C@@H](C)C(=O)N[C@H](C(=O)N[C@@H](C)C(=O)N[C@H](C(=O)N[C@@H](CC(C)C)C(=O)NCC(=O)N[C@H](C(=O)N[C@H](C(=O)NCC(=O)N[C@@H](CO)C(=O)N[C@@H](CC(N)=O)C(=O)N[C@H](C(=O)N[C@@H](CO)C(=O)NCC(=O)N[C@H](C(=O)N[C@H](C(=O)N[C@@H](CCC(=O)O)C(=O)N[C@H](C(=O)N[C@@H](C)C(=O)N[C@@H](C)C(=O)N[C@@H](CS)C(=O)N[C@H](C(=O)N[C@@H](CC(C)C)C(=O)N[C@@H](CC(C)C)C(=O)O)[C@@H](C)CC)[C@@H](C)CC)[C@@H](C)O)[C@@H](C)O)[C@@H](C)O)C(C)C)[C@@H](C)O)[C@@H](C)O)[C@@H](C)O [E23A] | no overt adverse effects | relative insolubility |
| CC[C@H](C)[C@H](N)C(=O)N[C@@H](C)C(=O)N[C@@H](CC(C)C)C(=O)N[C@H](C(=O)N[C@@H](CC(C)C)C(=O)N[C@@H](CCC(=O)O)C(=O)N1CCC[C@H]1C(=O)N[C@H](C(=O)N[C@@H](CS)C(=O)N[C@@H](CS)C(=O)N[C@@H](CCC(N)=O)C(=O)N[C@@H](CCC(=O)O)C(=O)N[C@@H](CCCNC(=N)N)C(=O)N[C@@H](C)C(=O)N[C@@H](C)C(=O)O)[C@@H](C)CC)[C@@H](C)CC [PA] |  | aqueous solubility of the compound was significantly improved |

From publication PMC3630508 (Molecular immunology, 2012)
